Structures can show the parent of a compound that is named as a salt. Marks after values point to notes of the source that are not given here.
Experiments:
Assay type in all cases: physicochemical
[1] = Solid state stability at 25° C./60% RH and 40° C./75% RH for 1 week
Experimental: Each sample was added into a glass vial, sealed by parafilm with several holes, and kept under tested conditions. After one week, samples were taken for XRPD and HPLC purity test.

[2] = Kinetic solubility in water and bio-relevant media (SGF, FaSSIF, FeSSIF) at 37° C.; conditions: for S: Solubility: calculated by freeform; for FC: Form change: residual solids by XRPD
Experimental: Add 4 mL of medium (H2O, SGF, FaSSIF and FeSSIF). • Rolled at 37° C. (˜25 rpm). Sampling at 1, 2, 4 and 24 hrs. • At each time-point, sampled 0.8 mL of solution or suspension into a centrifuge tube prior to centrifugation (12000 rpm, 37° C., 5 min) and filtration through 0.45 μm PTFE membrane. • Tested pH and concentration for the filtrate. Analyze residual solids by XRPD.
0.1 g of NaCl and 0.05 g of Triton X-100 were weighed into a 50-mL volumetric flask. Purified water was added to dissolve the solid. 67.5 μL HCl (38%, 12M) was added after the solid was dissolved completely. pH was then adjusted to 1.8 using HCl (1 M) or NaOH (1 M). Purified water was added to the volume.
0.17 g of anhydrous NaH2PO4, 0.021 g of NaOH and 0.31 g of NaCl were weighed into a 50-mL volumetric flask. ˜48 mL purified water was added to dissolve the solid. pH was adjusted to 6.5 using 1M HCl or 1M NaOH. Purified water was then added to the volume. 0.11 g of SIF powder was added into the volumetric flask.
0.41 mL of acetic acid, 0.20 g of NaOH and 0.59 g of NaCl were weighed into a 50-mL volumetric flask. ˜48 mL purified water was added to dissolve the solid. pH was adjusted to 5.0 using 1M HCl or 1M NaOH. Purified water was then added to the volume. 0.56 g of SIF powder was added into the volumetric flask.

[3] = Hygroscopicity by DVS at 25° C.
Experimental: DVS was measured via a SMS (Surface Measurement Systems) DVS Intrinsic. The relative humidity at 25° C. were calibrated against deliquescence point of LiCl, Mg(NO3)2 and KCl.

Question: Which “HPLC peak Area, RRT 0.70” value ([1]; 25° C./60% RH, 1 week) does the source give for `N#Cc1ccc(COc2cccc(C3CCN(Cc4nc5ccc(C(=O)O)cc5n4Cc4cncs4)CC3)n2)c(F)c1` [Tris salt Type C] here?
Answer: The value was 0.06%.

Question: And the “HPLC peak Area, RRT 0.79” value ([1]; 25° C./60% RH, 1 week)?
Answer: The value was 0.23%.

Question: What about the “HPLC peak Area, RRT 0.80” value ([1]; 25° C./60% RH, 1 week) of the same compound?
Answer: Its value is 0.05%.

Question: And the “HPLC peak Area, RRT 0.85” value ([1]; 25° C./60% RH, 1 week)?
Answer: Its value is 0.07%.

Question: And the “HPLC peak Area, RRT 0.93” value ([1]; 25° C./60% RH, 1 week)?
Answer: The value was 0.09%.

Question: And the Form change ([1]; 25° C./60% RH/Open/1 week)?
Answer: The Form change was “No”.

Question: What about the Purity ([1]; 25° C./60% RH/Open/1 week) of the same compound?
Answer: Its Purity is 96.76 Area %.

Question: And the “solid-state stability: form change and purity decrease” value ([1]; 25° C./60% RH/open and 40° C./75% RH/open, 1 week)?
Answer: Its value is “no form change or significant purity decrease”.

Question: What about the “HPLC peak Area, RRT 0.70” value ([1]; 40° C./75% RH, 1 week) of the same compound?
Answer: The value was 0.05%.

Question: What about the “HPLC peak Area, RRT 0.79” value ([1]; 40° C./75% RH, 1 week) of the same compound?
Answer: The value was 0.25%.

Question: And the “HPLC peak Area, RRT 0.80” value ([1]; 40° C./75% RH, 1 week)?
Answer: The value was 0.05%.

Question: What about the “HPLC peak Area, RRT 0.85” value ([1]; 40° C./75% RH, 1 week) of the same compound?
Answer: The value was less than 0.05%.

Question: What about the “HPLC peak Area, RRT 0.93” value ([1]; 40° C./75% RH, 1 week) of the same compound?
Answer: The value was 0.09%.

Question: What about the “HPLC peak Area, RRT 0.99” value ([1]; 40° C./75% RH, 1 week) of the same compound?
Answer: Its value is less than 0.05%.

Question: What about the “HPLC peak Area, RRT 1.12” value ([1]; 40° C./75% RH, 1 week) of the same compound?
Answer: The value was 0.05%.

Question: And the Form change ([1]; 40° C./75% RH/Open/1 week)?
Answer: The Form change was “No”.

Question: And the Purity ([1]; 40° C./75% RH/Open/1 week)?
Answer: Its Purity is 96.82 Area %.

Question: And the “HPLC peak Area, RRT 0.70” value ([1]; Initial)?
Answer: Its value is 0.05%.

Question: And the “HPLC peak Area, RRT 0.79” value ([1]; Initial)?
Answer: The value was 0.21%.

Question: What about the “HPLC peak Area, RRT 0.80” value ([1]; Initial) of the same compound?
Answer: Its value is 0.05%.

Question: And the “HPLC peak Area, RRT 0.85” value ([1]; Initial)?
Answer: Its value is 0.08%.

Question: And the “HPLC peak Area, RRT 0.93” value ([1]; Initial)?
Answer: The value was 0.09%.

Question: What about the “HPLC peak Area, RRT 1.12” value ([1]; Initial) of the same compound?
Answer: Its value is 0.06%.

Question: What about the Purity ([1]; Initial) of the same compound?
Answer: Its Purity is 96.55 Area %.

Question: And the “S: Solubility” value ([2]; FaSSIF, 37° C., 1 hr)?
Answer: Its value is 0.16 mg/mL.

Question: What about the “FC: Form change” value ([2]; FaSSIF, 37° C., 1 hr) of the same compound?
Answer: Its value is “Yes”.

Question: What about the “S: Solubility” value ([2]; FaSSIF, 37° C., 2 hrs) of the same compound?
Answer: The value was 0.29 mg/mL.

Question: What about the “FC: Form change” value ([2]; FaSSIF, 37° C., 2 hrs) of the same compound?
Answer: Its value is “Yes”.

Question: What about the “S: Solubility” value ([2]; FaSSIF, 37° C., 4 hrs) of the same compound?
Answer: Its value is 0.28 mg/mL.

Question: And the “FC: Form change” value ([2]; FaSSIF, 37° C., 4 hrs)?
Answer: Its value is “Yes”.

Question: What about the “S: Solubility” value ([2]; FaSSIF, 37° C., 24 hrs) of the same compound?
Answer: Its value is 0.04 mg/mL.

Question: What about the “FC: Form change” value ([2]; FaSSIF, 37° C., 24 hrs) of the same compound?
Answer: The value was “Yes”.

Question: And the “S: Solubility” value ([2]; FeSSIF, 37° C., 1 hr)?
Answer: The value was 0.17 mg/mL.

Question: What about the “FC: Form change” value ([2]; FeSSIF, 37° C., 1 hr) of the same compound?
Answer: Its value is “No”.

Question: And the “S: Solubility” value ([2]; FeSSIF, 37° C., 2 hrs)?
Answer: Its value is 0.13 mg/mL.

Question: What about the “FC: Form change” value ([2]; FeSSIF, 37° C., 2 hrs) of the same compound?
Answer: Its value is “No”.

Question: And the “S: Solubility” value ([2]; FeSSIF, 37° C., 4 hrs)?
Answer: Its value is 0.02* mg/mL.

Question: And the “FC: Form change” value ([2]; FeSSIF, 37° C., 4 hrs)?
Answer: Its value is “No”.

Question: What about the “FC: Form change” value ([2]; FeSSIF, 37° C., 24 hrs) of the same compound?
Answer: The value was “Yes”.

Question: What about the solubility at 24 h ([2]; FeSSIF, 37 °C, pH 5, fessif, thermodynamic from solid, FeSSIF, 37° C., at 24 hrs, read-out: solubility in FeSSIF) of the same compound?
Answer: The solubility at 24 h was 140 µg/mL.

Question: What about the “S: Solubility” value ([2]; H2O, 37° C., 1 hr) of the same compound?
Answer: The value was 0.46 mg/mL.

Question: And the “FC: Form change” value ([2]; H2O, 37° C., 1 hr)?
Answer: The value was “No”.

Question: And the “S: Solubility” value ([2]; H2O, 37° C., 2 hrs)?
Answer: Its value is 0.59 mg/mL.

Question: And the “FC: Form change” value ([2]; H2O, 37° C., 2 hrs)?
Answer: The value was “Yes”.

Question: What about the “S: Solubility” value ([2]; H2O, 37° C., 4 hrs) of the same compound?
Answer: The value was 2.5 mg/mL.

Question: What about the “FC: Form change” value ([2]; H2O, 37° C., 4 hrs) of the same compound?
Answer: Its value is “Yes”.

Question: What about the “S: Solubility” value ([2]; H2O, 37° C., 24 hrs) of the same compound?
Answer: The value was 0.99 mg/mL.

Question: And the “FC: Form change” value ([2]; H2O, 37° C., 24 hrs)?
Answer: The value was “Yes”.

Question: What about the “S: Solubility” value ([2]; SGF, 37° C., 1 hr) of the same compound?
Answer: Its value is 0.15 mg/mL.

Question: And the “FC: Form change” value ([2]; SGF, 37° C., 1 hr)?
Answer: The value was “No”.

Question: What about the “S: Solubility” value ([2]; SGF, 37° C., 2 hrs) of the same compound?
Answer: Its value is 0.03* mg/mL.

Question: What about the “FC: Form change” value ([2]; SGF, 37° C., 2 hrs) of the same compound?
Answer: The value was “No”.

Question: What about the “S: Solubility” value ([2]; SGF, 37° C., 4 hrs) of the same compound?
Answer: The value was 0.04* mg/mL.

Question: And the “FC: Form change” value ([2]; SGF, 37° C., 4 hrs)?
Answer: The value was “Yes”.

Question: And the “S: Solubility” value ([2]; SGF, 37° C., 24 hrs)?
Answer: The value was 0.17 mg/mL.

Question: And the “FC: Form change” value ([2]; SGF, 37° C., 24 hrs)?
Answer: The value was “Yes”.

Question: And the “form change of residual solids (XRPD) after solubility test” value ([2]; all the media (H2O, SGF, FaSSIF, FeSSIF), after 24 hrs)?
Answer: Its value is “form change was observed”.

Question: And the “Kinetic Solubility, 24-h solubility” value ([2]; in FeSSIF, 24 h, comparison among selected salts and Freeform Type C)?
Answer: The value was 2) In FeSSIF, the 24-h solubility of Tris salt Type C was higher.

Question: What about the “water uptake (DVS)” value ([3]; 25° C./80% RH) of the same compound?
Answer: The value was 1.44%.

Question: What about the hygroscopicity ([3]; DVS, 25° C.) of the same compound?
Answer: The hygroscopicity was “slightly hygroscopic”.

Question: And the “Water uptake at 25° C./80% RH” value ([3]; DVS, 25° C./80% RH)?
Answer: Its value is 1.44 wt %.

Question: What about the “For change after DVS” value ([3]; XRPD after DVS test) of the same compound?
Answer: Its value is “No”.

Question: What about the “form change after DVS test (XRPD)” value ([3]; after DVS test) of the same compound?
Answer: The value was “no form change”.
